The target of assay [1] is T1, Recombinant STAT3 protein (STAT3 (G127-I722)) (Homo sapiens, UniProt P40763).
T1 construct: Recombinant STAT3 protein (STAT3 (G127-I722))
Kind of assay: STAT3 Fluorescence Polarization (FP) Assay. Type of assay: binding. The following applies: STAT3 (G127-I722) 25 nM, probe 5-FAM-GpYLPQTV-NH2 2 nM, 45-minute incubation; read-out: STAT3 (FP assay IC50 class). The gist of the method:
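Read-out is fluorescence polarization (mP) after 45 min at room temperature, with IC50 fitted by nonlinear regression against log compound concentration. Mixture: 25 nM STAT3 (G127-I722), 2 nM 5-FAM-GpYLPQTV-NH2 phosphopeptide, 10 mM HEPES pH 7.4 buffer, 1% DMSO.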
(In fluorescence polarisation assays a small probe gives low polarisation when free and higher when bound to something large.)

The target in assay [2] is T2, Recombinant STAT6 protein (STAT6 (W123-T658)) (Homo sapiens, UniProt P42226).
T2 construct: Recombinant STAT6 protein (STAT6 (W123-T658))
T2 sequence (P42226 123-658): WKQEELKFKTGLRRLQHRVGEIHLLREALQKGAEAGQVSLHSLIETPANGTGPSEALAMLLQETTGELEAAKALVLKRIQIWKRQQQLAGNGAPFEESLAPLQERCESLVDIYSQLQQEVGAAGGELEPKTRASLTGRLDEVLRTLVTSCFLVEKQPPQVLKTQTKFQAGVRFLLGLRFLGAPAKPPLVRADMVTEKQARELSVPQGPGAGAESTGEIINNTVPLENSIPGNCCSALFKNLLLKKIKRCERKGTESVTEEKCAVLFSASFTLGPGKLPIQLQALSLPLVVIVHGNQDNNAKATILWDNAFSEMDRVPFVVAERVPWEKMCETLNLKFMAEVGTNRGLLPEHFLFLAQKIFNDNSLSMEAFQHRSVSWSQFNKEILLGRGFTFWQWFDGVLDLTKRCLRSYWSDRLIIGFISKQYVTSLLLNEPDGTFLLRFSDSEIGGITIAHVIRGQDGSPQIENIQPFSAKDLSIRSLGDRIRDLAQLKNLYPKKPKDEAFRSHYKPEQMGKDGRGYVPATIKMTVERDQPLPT
Briefly: STAT6 Fluorescence Polarization (FP) Assay. Type of assay: binding. To be noted: STAT6 (W123-T658) 250 nM, probe 5-FAM-Ap[…]-NH2 2 nM, 45-minute incubation; read-out: STAT6 (FP assay IC50 class). The gist of the method:
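Displacement of a fluorescent phosphotyrosine peptide (2 nM) from 250 nM STAT6 (W123-T658) is measured by polarization after a 45-minute room-temperature incubation. Compounds are titrated serially at 1% DMSO, and IC50 values derive from regression of mP on log concentration.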

T1 sequence (P40763 127-722): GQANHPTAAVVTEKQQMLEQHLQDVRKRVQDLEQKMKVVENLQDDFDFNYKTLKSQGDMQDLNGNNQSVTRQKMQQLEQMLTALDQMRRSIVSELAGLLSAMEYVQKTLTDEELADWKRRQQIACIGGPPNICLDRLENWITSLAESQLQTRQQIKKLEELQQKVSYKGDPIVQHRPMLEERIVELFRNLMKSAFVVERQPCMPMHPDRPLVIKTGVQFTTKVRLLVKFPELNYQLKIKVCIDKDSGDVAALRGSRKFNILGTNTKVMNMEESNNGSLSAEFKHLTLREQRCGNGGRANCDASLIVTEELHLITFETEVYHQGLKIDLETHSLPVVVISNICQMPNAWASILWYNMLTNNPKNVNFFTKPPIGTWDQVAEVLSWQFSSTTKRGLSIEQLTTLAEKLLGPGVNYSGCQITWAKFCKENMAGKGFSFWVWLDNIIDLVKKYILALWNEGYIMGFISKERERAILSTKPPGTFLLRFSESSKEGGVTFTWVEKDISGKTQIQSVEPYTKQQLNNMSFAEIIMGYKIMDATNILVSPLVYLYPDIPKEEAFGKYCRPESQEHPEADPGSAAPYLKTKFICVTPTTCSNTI

One may read the IC50 as the concentration at which inhibition is half-maximal. For the compound `C/C1=C/C[C@H](NC(=O)c2cc3cc(CP(=O)(O)O)ccc3s2)C(=O)N2[C@H](CC[C@H]2C(=O)N2CC(c3cnccc3C)C2)C1` [Compound 642, ((2-(((3S,6S,10aR,Z)-9-methyl-3-(3-(4-methylpyridin-3-yl)azetidine-1-carbonyl)-5-oxo-1,2,3,5,6,7,10,10a-octahydropyrrolo[1,2-a]azocin-6-yl)carbamoyl)benzo [b]thiophen-5-yl)methyl) phosphonic acid], the half-maximal inhibitory concentration (IC50) in assay [1] lay within 0.1 to 1 µM; in assay [2], 3 to 30 µM.

As to `C/C1=C/[C@H]2CC[C@@H](C(=O)N3CC(c4cnccc4C)C3)N2C(=O)[C@@H](NC(=O)c2cc3cc(C(F)(F)P(=O)(O)O)ccc3s2)CC1` [Compound 643, (difluoro(2-(((3S,6S,10aR,Z)-9-methyl-3-(3-(4-methylpyridin-3-yl)azetidine-1-carbonyl)-5-oxo-1,2,3,5,6,7,8,10a-octahydropyrrolo[1,2-a]azocin-6-yl)carbamoyl)benzo [b]thiophen-5-yl)methyl) phosphonic acid], the concentration for half-maximal inhibition (IC50) in assay [1] was less than 0.1 µM; in assay [2] it was 0.3 to 3 µM.

For the compound `C/C1=C/[C@H]2CC[C@@H](C(=O)N3CC(c4cnccc4C)C3)N2C(=O)[C@@H](NC(=O)c2cc3cc(CP(=O)(O)O)ccc3s2)CC1` [Compound 644, ((2-(((3S,6S,10aR,Z)-9-methyl-3-(3-(4-methylpyridin-3-yl)azetidine-1-carbonyl)-5-oxo-1,2,3,5,6,7,8,10a-octahydropyrrolo[1,2-a]azocin-6-yl)carbamoyl)benzo [b]thiophen-5-yl)methyl) phosphonic acid], the half-inhibitory concentration (IC50) in assay [1] lay in the range of 0.1 to 1 µM; in assay [2], 3 to 30 µM.

Regarding `O=C(N[C@H]1CCCC[C@H]2CC[C@@H](C(=O)NC(CO)c3c[nH]c4ncccc34)N2C1=O)c1cc2cc(C(F)(F)P(=O)(O)O)ccc2s1` (stereo partly drawn) [Compound 645, (difluoro(2-(((3S,6S,10aS)-3-((2-hydroxy-1-(1H-pyrrolo[2,3-b]pyridin-3-yl)ethyl)carbamoyl)-5-oxodecahydropyrrolo [1,2-a]azocin-6-yl)carbamoyl)benzo [b]thiophen-5-yl)methyl) phosphonic acid], the IC50 in assay [1] is 0.1 to 1 µM; in assay [2] it was 3 to 30 µM.

On to `Cc1cc(=O)[nH]cc1C1CN(C(=O)[C@@H]2CC[C@@H]3CCC[C@H](NC(=O)c4cc5cc(CP(=O)(O)O)ccc5s4)C(=O)N32)C1` [Compound 646, ((2-(((3S,6S,9aS)-3-(3-(4-methyl-6-oxo-1,6-dihydropyridin-3-yl)azetidine-1-carbonyl)-5-oxooctahydro-1H-pyrrolo[1,2-a]azepin-6-yl)carbamoyl)benzo [b]thiophen-5-yl)methyl) phosphonic acid], for which the IC50 was in the range of 1 to 10 µM in assay [1] and 3 to 30 µM in assay [2].

As for `Cc1ccncc1C1CN(C(=O)[C@@H]2CC[C@@H]3CCCC[C@H](NC(=O)c4cc5cc(CP(=O)(O)O)ccc5s4)C(=O)N32)C1` [Compound 647, ((2-(((3S,6S,10aS)-3-(3-(4-methylpyridin-3-yl)azetidine-1-carbonyl)-5-oxodecahydropyrrolo [1,2-a]azocin-6-yl)carbamoyl)benzo [b]thiophen-5-yl)methyl) phosphonic acid], the IC50 was 0.1 to 1 µM in assay [1] and 3 to 30 µM in assay [2].

Take `Cc1nccnc1C1CN(C(=O)[C@@H]2CC[C@@H]3CCC[C@H](NC(=O)c4cc5cc(C(F)(F)P(=O)(O)O)ccc5s4)C(=O)N32)C1` [Compound 648, (difluoro(2-(((3S,6S,9aS)-3-(3-(3-methylpyrazin-2-yl)azetidine-1-carbonyl)-5-oxooctahydro-1H-pyrrolo[1,2-a]azepin-6-yl)carbamoyl)benzo [b]thiophen-5-yl)methyl) phosphonic acid]: the figures for the IC50 in assay [1] and in assay [2] were less than 0.1 µM and 3 to 30 µM, respectively.

For the compound `Cc1nccnc1C1CN(C(=O)[C@@H]2CC[C@@H]3CCC[C@H](NC(=O)c4cc5cc(CP(=O)(O)O)ccc5s4)C(=O)N32)C1` [Compound 649, ((2-(((3S,6S,9aS)-3-(3-(3-methylpyrazin-2-yl)azetidine-1-carbonyl)-5-oxooctahydro-1H-pyrrolo[1,2-a]azepin-6-yl)carbamoyl)benzo [b]thiophen-5-yl)methyl) phosphonic acid], the 50% inhibitory concentration (IC50) in assay [1] fell in the range of 1 to 10 µM; in assay [2], 3 to 30 µM.

As for `Cc1cncnc1C1CN(C(=O)[C@@H]2CC[C@@H]3CCC[C@H](NC(=O)c4cc5cc(CP(=O)(O)O)ccc5s4)C(=O)N32)C1` [Compound 650, ((2-(((3S,6S,9aS)-3-(3-(5-methylpyrimidin-4-yl)azetidine-1-carbonyl)-5-oxooctahydro-1H-pyrrolo[1,2-a]azepin-6-yl)carbamoyl)benzo [b]thiophen-5-yl)methyl) phosphonic acid], the IC50 was 1 to 10 µM in assay [1] and 3 to 30 µM in assay [2].

On to `COC1(c2cccnc2)CN(C(=O)[C@@H]2CC[C@@H]3CCCC[C@H](NC(=O)c4cc5cc(CP(=O)(O)O)ccc5s4)C(=O)N32)C1` [Compound 651, ((2-(((3S,6S,10aS)-3-(3-methoxy-3-(pyridin-3-yl)azetidine-1-carbonyl)-5-oxodecahydropyrrolo [1,2-a]azocin-6-yl)carbamoyl)benzo [b]thiophen-5-yl)methyl) phosphonic acid], for which the IC50 in assay [1] lay within 1 to 10 µM; in assay [2], 3 to 30 µM.

With `Cc1cncnc1C1CN(C(=O)[C@@H]2CC[C@@H]3CCC[C@H](NC(=O)c4cc5cc(C(F)(F)P(=O)(O)O)ccc5s4)C(=O)N32)C1` [Compound 652, (difluoro(2-(((3S,6S,9aS)-3-(3-(5-methylpyrimidin-4-yl)azetidine-1-carbonyl)-5-oxooctahydro-1H-pyrrolo[1,2-a]azepin-6-yl)carbamoyl)benzo [b]thiophen-5-yl)methyl) phosphonic acid], the IC50 in assay [1] was in the range of 0.1 to 1 µM; in assay [2], 0.3 to 3 µM.

For the compound `N#Cc1cccc(C2CN(C(=O)[C@@H]3CC[C@@H]4CCC[C@H](NC(=O)c5cc6cc(CP(=O)(O)O)ccc6s5)C(=O)N43)C2)n1` [Compound 653, ((2-(((3S,6S,9aS)-3-(3-(6-cyanopyridin-2-yl)azetidine-1-carbonyl)-5-oxooctahydro-1H-pyrrolo[1,2-a]azepin-6-yl)carbamoyl)benzo [b]thiophen-5-yl)methyl) phosphonic acid], the figures for the IC50 in assay [1] and in assay [2] were 0.1 to 1 µM and 3 to 30 µM, respectively.

For the compound `COCC1(c2ncccn2)CN(C(=O)[C@@H]2CC[C@@H]3CCCC[C@H](NC(=O)c4cc5cc(C(F)(F)P(=O)(O)O)ccc5s4)C(=O)N32)C1` [Compound 654, (difluoro(2-(((3S,6S,10aS)-3-(3-(methoxymethyl)-3-(pyrimidin-2-yl)azetidine-1-carbonyl)-5-oxodecahydropyrrolo [1,2-a]azocin-6-yl)carbamoyl)benzo [b]thiophen-5-yl)methyl) phosphonic acid], the 50% inhibitory concentration (IC50) was 0.1 to 1 µM in assay [1] and 3 to 30 µM in assay [2].

On to `Cc1ccncc1C1CN(C(=O)[C@@H]2CC[C@@H]3C[C@@H](C)CC[C@H](NC(=O)c4cc5cc(CP(=O)(O)O)ccc5s4)C(=O)N32)C1` [Compound 655, ((2-(((3S,6S,9S,10aR)-9-methyl-3-(3-(4-methylpyridin-3-yl)azetidine-1-carbonyl)-5-oxodecahydropyrrolo [1,2-a]azocin-6-yl)carbamoyl)benzo [b]thiophen-5-yl)methyl) phosphonic acid], for which the IC50 in assay [1] lay within 0.1 to 1 µM; in assay [2], 3 to 30 µM.

Regarding `Cc1ccncc1C1CN(C(=O)[C@@H]2CC[C@@H]3C[C@H](C)CC[C@H](NC(=O)c4cc5cc(CP(=O)(O)O)ccc5s4)C(=O)N32)C1` [Compound 656, ((2-(((3S,6S,9R,10aR)-9-methyl-3-(3-(4-methylpyridin-3-yl)azetidine-1-carbonyl)-5-oxodecahydropyrrolo [1,2-a]azocin-6-yl)carbamoyl)benzo [b]thiophen-5-yl)methyl) phosphonic acid], the half-maximal inhibitory concentration (IC50) in assay [1] is 0.1 to 1 µM; in assay [2], 3 to 30 µM.

Regarding `Cc1cccnc1C1CN(C(=O)[C@@H]2CC[C@@H]3CCC[C@H](NC(=O)c4cc5cc(CP(=O)(O)O)ccc5s4)C(=O)N32)C1` [Compound 657, ((2-(((3S,6S,9aS)-3-(3-(3-methylpyridin-2-yl)azetidine-1-carbonyl)-5-oxooctahydro-1H-pyrrolo[1,2-a]azepin-6-yl)carbamoyl)benzo [b]thiophen-5-yl)methyl) phosphonic acid], the figures for the IC50 in assay [1] and in assay [2] were 1 to 10 µM and 3 to 30 µM, respectively.
